# From US20170327827A1, “ADIPOCYTE-SPECIFIC CONSTRUCTS AND METHODS FOR INHIBITING PLATELET-TYPE 12 LIPOXYGENASE EXPRESSION” (The Medical Research, Infrastructure, and Health Services …, priority 2006, published 2017)
# “Also recorded” adds a separate entry of the source.
# What was measured:
# Format in all cases: cell-based, murine
# [1] = test system: 3T3-L1 cells; assay: G418 selection kill level; conditions: 600 μg/ml G418 over two weeks
# Protocol: 600 μg/ml is enough G418 to kill 100% 3T3-L1 cells over 2 weeks. Thus the levels used clearly distinguish between cells that incorporated G418 resistance (within the expression plasmid used) into their genomes and cells lacking this marker. A few passages after G418 release stable populations should recover and fill the plate.
# The Fugene6 protocol was then used again for preparation of 12Lo antisense knockout and control clones together with the G418 selection marker as G418 resistance was built in to the pCDNA3.1 plasmid (see FIGS. 2A-2D). It was herein determined that 600 μg/ml G418 killed 100% of 3T3-L1 cells over two weeks. So on transfection of cells and selection with 650 μg/ml G418 over three weeks only those cells expressing strong […] resistance would survive and grow. Following three weeks of selection G418 release was gradual over the next 1-2 weeks.
# [2] = test system: 3T3-L1 cells; assay: Basal cell death of stable 12Lo antisense knockout populations and clones (trypan blue)
# [3] = test system: 3T3-L1 stable cell lines; assay: Necrosis by lactate dehydrogenase (LDH) release
# Protocol: Lactate Dehydrogenase Release (LDH): Necrotic cells release their cytoplasmic contents into the surrounding medium. In recent years the measurement of one such stable enzyme, LDH, has become a standard laboratory marker of necrosis (Goeptar et al., 1994; Moran et al., 1996). Cell cultures and treatments tested for LDH release had their supernatants collected, centrifuged (1,100×g, 5 minutes; to remove particulate debris) and supernatants tested automatically in a centralized facility (in-house) by method of Moran and Schnellmann (Moran et al., 1996), 1996. In each study a positive control for LDH release was a 1/5000 dilution of triton X100 directly into the cell culture, for the period of the bioassay. Negative control was medium without cells.
# Cell death can occur as a result of different processes: apoptosis, which is a very programmed process, as well as other less programmed mechanisms such as necrosis. […] In recent years, investigators have been measuring the release of lactate dehydrogenase (LDH) from cells as a measure of cellular necrosis. The contribution of necrosis in the cell death of the 12Lo reduced expressing clones was thus examined by comparing LDH release from control and pCMV600a 12Lo antisense knockout stable preadipocyte cell lines grown in the presence or absence of 12-HETE. In FIG. 15, typical data of such a study is presented.
# [4] = test system: 3T3-L1 cells; assay: DNA fragmentation (Roche Cell Death Detection ELISA) in stable knockout populations and clones; conditions: 10^−7M
# Protocol: DNA Fragmentation (ELISA method): Apoptopic cells show hallmark random DNA fragmentation between nucleosomes. The “Cell Death Detection ELISA” format by Roche (Mannheim, Germany) was used in the following examples. Culture treatments and controls were performed for the tested period and after counting the cells and washing them twice with PBS, 250,000 cells/aliquot were prepared and stored dry at −180° C. until assay. Multiple replicates were usually prepared for assay together on the same day in the same kit. Assay was carried out exactly as described by the manufacturer on 250,000 cells/aliquot.
# One hallmark of apoptosis is DNA fragmentation. In the current studies the Roche (Mannheim, Germany) version of this assay was used in the format of an ELISA assay, which measures released intact DNA/Histone-nucleosomes. The results are presented as antisense knockout levels normalized to parallel control values. In the experiment shown in FIGS. 10A-10B, populations of 3T3-L1 cells with either of the two 12Lo antisense knockout plasmids (“mp”-pCMV5′mp12Lo(Pst1)-A; “600a”-pcDNAh60012LoA) versus controls (“Con”) were directly compared: cell death versus relative DNA fragmentation.
# To further validate the mechanism of cell death the Roche Cell Death kit was applied as a measure of DNA fragmentation, which is a classic apoptopic hallmark. […]
Compound,3T3-L1 cells killed [1] [%],effect of added 12-HETE on cell death of 12Lo antisense knockout clones ([2]; 12-HETE 10^−7 M),"effect of 12-HETE on cell survival of control clone ([2]; pCMVCAT stably transfected 3T3-L1 cells, 10^−7M)",effect of 12-HETE on cell necrosis (LDH release) [3],effect of 12-HETE on DNA fragmentation levels ([4]; each of the pCMV600a clonal stable lines),DNA fragmentation level on supplemented 12-HETE ([4]; pCMV600a clone 10)
CN[C@@H]1[C@@H](O)[C@@H](O[C@@H]2[C@@H](O)[C@H](O[C@H]3O[C@H]([C@@H](C)O)[C@@H](O)[C@H](O)[C@H]3N)[C@@H](N)C[C@H]2N)OC[C@]1(C)O [G418],100,,,,,
"CCCCC/C=C\C[C@@H](O)/C=C/C=C\C/C=C\CCCC(=O)O [12-HETE, 12 hydroxyeicosatetraenoic acid]",,much less cell death; also recorded: encouraged cell survival,no effect,no effect,reduced the DNA fragmentation levels,nearly “normal” (or control) levels
